# Test results: publication PMC6588697, “Lugdunin amplifies innate immune responses in the skin in synergy with host- and microbiota-derived factors” (Nature Communications, 2019)
# Several values for one entry are separate records, joined by “and”; a condition that tells them apart may be missing. Equal entries are not always repeated.
# What was measured:
# Type in all cases: cell-based, human
# PBMCs = assay: Cytokine release into PBMC supernatant (LEGENDplex / ELISA); conditions: 5 h, lugdunin 2 µM or Pam2Cys 100 ng/mL, two technical replicates, Fig 1f
# Experimental: Fig. 1 Lugdunin sensitizes epithelial cells for innate immune defense. a Primary human keratinocytes (PHKs) were pretreated with S. epidermidis conditioned medium (CM), indicated lugdunin concentrations, or the combination of both for 20 h. Subsequently, cells were infected with S. aureus for 1.5 h followed by cell lysis and determination of colony-forming units (CFUs). Shown is one representative experiment of three independent experiments with six technical replicates ± s.e.m. n.s., not significant. b Dorsal skin of mice was pretreated with S. epidermidis CM, 1.5 µg lugdunin alone or in combination with S. epidermidis CM for 24 h. Subsequently, S. aureus CFUs were determined. Horizontal lines represent the mean of each group ± s.e.m. c PHKs were treated with 2 μM lugdunin or with S. epidermidis CM alone or in combination for 20 h and subsequently expression of indicated antimicrobial peptides (AMPs) (respective protein names in brackets) was analyzed and normalized to actin. Shown is one representative experiment of three independent experiments with two technical replicates ± s.e.m. d PHKs were treated with 2 µM lugdunin or 100 ng/mL Pam2Cys for 5 h and subsequently the concentration of indicated cytokines in the supernatant was analyzed by LEGENDplex^TM (BioLegend). […]
# HEK293-TLR2 cells = assay: CXCL8 release by HEK-TLR2 cells (LEGENDplex)
# Experimental: (§1) Fig. 2 Induction of chemokine (C-X-C motif) ligand 8/macrophage inflammatory protein-2 (CXCL8/MIP-2) by lugdunin is TLR2/MyD88-dependent. a HEK-control or HEK-TLR2 cells were treated with 2 μM lugdunin for 5 h and subsequently the CXCL8 concentration in the supernatant was analyzed by LEGENDplex^TM (BioLegend). Shown is one representative experiment of three independent experiments with two technical replicates ± s.e.m. b HEK-control or HEK-TLR2 cells were treated with increasing concentrations of lugdunin for 5 h and subsequently expression of CXCL8 was analyzed and normalized to actin. Shown is one representative experiment of three independent experiments with two technical replicates ± s.e.m. c Schematic overview of the mouse experiments: 6–8-week-old female C5BL/6 WT, MyD88-knockout (ko), or 5xTLR-ko mice were epicutaneously treated with 1.5 µg lugdunin or phosphate-buffered saline (PBS) as a control. […] Significant differences to control treatments were analyzed by an unpaired two-tailed t test (*P < 0.05; **P < 0.01; ***P < 0.001). f Representative MIP-2-stained paraffin-embedded mouse skin sections. […]
# (§2) Supplementary Figure 2: CXCL8 controls and other cytokines in mouse skin 46 a: HEK-control cells or HEK -TLR2 cells were treated with 100 ng/mL Pam2Cys for 5 47 hours and subsequently the CXCL8 concentration in the supernatant was analyzed. […]
# HEK293 cells = assay: CXCL8 release by HEK-control cells (LEGENDplex); conditions: lugdunin 2 µM, 5 h, two technical replicates, Fig 2a
# Experimental: as §1, §2
# HNEpCs = assay: Cytokine release into HNEpC supernatant (LEGENDplex / ELISA); conditions: 5 h, lugdunin 2 µM or Pam2Cys 100 ng/mL, two technical replicates, Fig 1f
substance,measurement,setting,value
Lugdunin,CXCL8 concentration in supernatant,PBMCs,231.761 and 233.451
same,CXCL8 concentration in supernatant,"HEK293-TLR2 cells; HEK-TLR2 cells, lugdunin 2 µM, 5 h, two technical replicates, Fig 2a",564.521 and 585.121
same,"CXCL8 induction level in HEK-TLR2 cells, times lower than Pam2Cys/Pam3Cys-mediated TLR2 activation",HEK293-TLR2 cells; text to Fig 2a and Supp Fig 2,1000 fold
same,CXCL8 concentration in supernatant,HEK293 cells,39.328 and 39.600
same,CXCL8 concentration in supernatant,HNEpCs,421.035 and 417.001
